{"source": "paper PMC6616073", "about": "(Frontiers in Pharmacology, 2019)", "key": {"[1]": {"target": "T1, human α9α10 nAChR (Homo sapiens, UniProt Q9GZZ6+Q9UGM1)", "T1 construct": "expressed in transfected cells; host or cells: Xenopus laevis oocytes injected with cRNA (pT7TS vector)", "T1 sequence (Q9UGM1 26-479 limits assumed)": "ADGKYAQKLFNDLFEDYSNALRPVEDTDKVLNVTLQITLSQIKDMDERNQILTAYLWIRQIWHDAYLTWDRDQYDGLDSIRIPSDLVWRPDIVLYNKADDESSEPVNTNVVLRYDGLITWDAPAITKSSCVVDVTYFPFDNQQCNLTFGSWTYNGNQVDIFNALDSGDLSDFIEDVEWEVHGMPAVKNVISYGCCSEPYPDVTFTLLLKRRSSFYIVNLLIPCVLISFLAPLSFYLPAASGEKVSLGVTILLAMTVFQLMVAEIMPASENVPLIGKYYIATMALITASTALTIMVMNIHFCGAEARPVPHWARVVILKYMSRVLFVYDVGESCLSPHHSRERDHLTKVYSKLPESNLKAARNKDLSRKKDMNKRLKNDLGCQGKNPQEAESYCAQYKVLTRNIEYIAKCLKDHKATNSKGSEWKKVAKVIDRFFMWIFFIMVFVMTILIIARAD", "T1 sequence (Q9GZZ6 25-450)": "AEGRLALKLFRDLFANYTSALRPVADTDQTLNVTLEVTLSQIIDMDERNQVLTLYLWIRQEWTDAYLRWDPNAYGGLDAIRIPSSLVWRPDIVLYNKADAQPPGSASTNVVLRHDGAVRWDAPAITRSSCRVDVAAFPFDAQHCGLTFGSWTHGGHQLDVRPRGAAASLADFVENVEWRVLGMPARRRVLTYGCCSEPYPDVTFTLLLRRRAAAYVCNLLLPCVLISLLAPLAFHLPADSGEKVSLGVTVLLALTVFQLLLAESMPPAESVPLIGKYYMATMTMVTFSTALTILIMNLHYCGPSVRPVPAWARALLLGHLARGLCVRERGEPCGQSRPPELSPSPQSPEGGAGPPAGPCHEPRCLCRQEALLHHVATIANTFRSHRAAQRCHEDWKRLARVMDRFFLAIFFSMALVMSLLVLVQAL", "assay": "Two-electrode voltage clamp, human α9α10 nAChR in Xenopus oocytes", "type": "cell-based", "conditions": "for inhibition of human α9α10 nAChR (result in words): concentrations as high as 50 µM, Xenopus oocytes, data not shown", "experimental": "(§1) Oocytes were removed from mature, anesthetized Xenopus laevis by dissecting abdomen and removing necessary amount of ovarium. Stage V–VI Xenopus laevis oocytes were defolliculated with 2 mg/ml collagenase type I (Life Technologies, Camarillo, USA) at room temperature (21–24°C) for 2 h in Ca^2+-free Barth’s solution composed of (in mM) 88 NaCl, 1.1 KCl, 2.4 NaHCO3, 0.8 MgSO4, and 15 HEPES-NaOH at pH 7.6. Oocytes were injected with 9.2 ng of rat or human nAChR α9 and α10 cRNA (in a ratio 1:1) or human α3 and β2 or α4 and β2 cRNA (in a ratio 1:1). Oocytes were incubated at 18°C for 2–4 days before electrophysiological recordings in Barth’s solution composed of (in mM) 88 NaCl, 1.1 KCl, 2.4 NaHCO3, 0.3 Ca(NO3)2, 0.4 CaCl2, 0.8 MgSO4, and 15 HEPES-10NaOH at pH 7.6, supplemented with 40 μg/ml gentamicin and 100 μg/ml ampicillin. Recordings were performed using turbo TEC-03X amplifier (NPI Electronic, Tamm, Germany) and WinWCP recording software (University of Strathclyde, Glasgow, UK). The glass recording electrodes were filled with 3 M KCl and the electrode resistance was 0.1−0.5 MΩ. Membrane potential was clamped at −60 mV. Oocytes were briefly washed with Ba^2+ Ringer’s solution ([Fuchs and Murrow, 1992]) composed of (in mM) 115 NaCl, 2.5 KCl, 1.8 BaCl2, 10 HEPES at pH 7.2, followed by three applications of 10 μM acetylcholine (ACh). Washout with Ba^2+ Ringer’s was done for 5 min between ACh applications. Oocytes were preincubated with various concentrations of Ly6 peptides for 5 min followed by their co-application with ACh. To induce ion current, we used ACh in the concentration range from 10 to 30 μM. The peak current amplitudes of ACh-induced responses were measured before (ACh alone) and after the preincubation of oocytes with peptides. The ratio between these two measurements was used to assess the activity of the tested compounds. In the experiments with α3β2 and α4β2, the above technique was also used, except that oocytes were washed in Barth`s solution. All control experiments were performed on the same day.\nRat α9 and α10 cDNAs was cloned in a pGEMHE vector; human α9, α10, α3, and β2 cDNAs were derived from pT7TS vector. Human α4 was cloned in pSP64 vector. Plasmid pT7TS constructs of human nAChR α9 and α10 subunits and human α3 and β2 subunits were linearized with XbaI restriction enzymes (NEB, Ipswich, USA). pSP64 vector was linearized with BamH1 restriction enzymes (NEB, Ipswich, USA). Rat α9 and α10 plasmids were linearized using NheI (NEB, Ipswich, USA). All plasmid constructs were sequencing before mRNA synthesis. […]"}, "[2]": {"target": "human α7 nAChR (Homo sapiens, UniProt P36544)", "sequence (P36544 23-502)": "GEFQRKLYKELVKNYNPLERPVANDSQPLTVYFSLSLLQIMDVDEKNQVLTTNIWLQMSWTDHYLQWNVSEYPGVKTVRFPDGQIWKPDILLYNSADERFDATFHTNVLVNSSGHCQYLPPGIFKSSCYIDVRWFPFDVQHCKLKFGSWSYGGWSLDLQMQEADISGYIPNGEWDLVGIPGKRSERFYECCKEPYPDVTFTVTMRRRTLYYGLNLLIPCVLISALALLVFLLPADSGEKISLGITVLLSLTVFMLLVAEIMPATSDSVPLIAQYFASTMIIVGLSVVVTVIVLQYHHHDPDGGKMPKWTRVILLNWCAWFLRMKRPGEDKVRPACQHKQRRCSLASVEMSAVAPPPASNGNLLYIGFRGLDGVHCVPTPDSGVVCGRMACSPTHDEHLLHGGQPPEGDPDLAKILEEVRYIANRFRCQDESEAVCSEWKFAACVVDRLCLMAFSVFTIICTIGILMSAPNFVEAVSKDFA", "assay": "cell-based", "type": "binding"}, "[3]": {"system": "human α3β2 nAChR", "assay": "Two-electrode voltage clamp, human α3β2 nAChR in Xenopus oocytes", "type": "cell-based", "conditions": "X. laevis oocytes; for activity on ion currents in α3β2 nAChR (result in words): 30 μM acetylcholine, 30 µM peptide in text, 50 μM in Figure 4, n = 3 or 5", "experimental": "as §1, with “day. […]” for “day.”"}, "[4]": {"target": "T2, AChBP from Aplysia californica (Aplysia californica, UniProt Q8WSF8)", "T2 construct": "made in house", "T2 sequence (Q8WSF8 entry or part of it)": "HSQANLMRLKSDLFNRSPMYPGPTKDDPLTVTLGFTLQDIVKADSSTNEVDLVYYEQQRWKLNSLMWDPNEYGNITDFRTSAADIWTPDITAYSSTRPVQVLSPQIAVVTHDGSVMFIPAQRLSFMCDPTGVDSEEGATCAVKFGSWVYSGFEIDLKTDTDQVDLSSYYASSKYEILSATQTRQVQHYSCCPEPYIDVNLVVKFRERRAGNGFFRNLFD", "assay": "biochemical", "type": "binding"}, "[5]": {"target": "membrane-bound Torpedo californica nAChR (Tetronarce californica, UniProt P02710+P02712+P02714+P02718)", "sequence (P02714 18-506)": "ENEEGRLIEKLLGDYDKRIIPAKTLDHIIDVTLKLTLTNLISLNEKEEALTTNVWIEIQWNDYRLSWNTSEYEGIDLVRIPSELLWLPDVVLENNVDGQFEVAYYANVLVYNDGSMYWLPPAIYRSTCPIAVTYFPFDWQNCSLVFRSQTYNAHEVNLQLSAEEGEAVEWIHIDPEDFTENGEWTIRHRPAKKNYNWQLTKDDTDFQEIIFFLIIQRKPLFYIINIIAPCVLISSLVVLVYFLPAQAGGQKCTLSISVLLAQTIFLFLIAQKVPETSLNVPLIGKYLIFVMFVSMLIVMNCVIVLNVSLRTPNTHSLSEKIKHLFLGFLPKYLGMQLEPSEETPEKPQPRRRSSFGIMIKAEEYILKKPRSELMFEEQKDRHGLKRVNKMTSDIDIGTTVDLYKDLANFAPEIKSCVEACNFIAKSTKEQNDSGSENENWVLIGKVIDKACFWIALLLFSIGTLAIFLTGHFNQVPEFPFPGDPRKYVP", "sequence (P02710 25-461)": "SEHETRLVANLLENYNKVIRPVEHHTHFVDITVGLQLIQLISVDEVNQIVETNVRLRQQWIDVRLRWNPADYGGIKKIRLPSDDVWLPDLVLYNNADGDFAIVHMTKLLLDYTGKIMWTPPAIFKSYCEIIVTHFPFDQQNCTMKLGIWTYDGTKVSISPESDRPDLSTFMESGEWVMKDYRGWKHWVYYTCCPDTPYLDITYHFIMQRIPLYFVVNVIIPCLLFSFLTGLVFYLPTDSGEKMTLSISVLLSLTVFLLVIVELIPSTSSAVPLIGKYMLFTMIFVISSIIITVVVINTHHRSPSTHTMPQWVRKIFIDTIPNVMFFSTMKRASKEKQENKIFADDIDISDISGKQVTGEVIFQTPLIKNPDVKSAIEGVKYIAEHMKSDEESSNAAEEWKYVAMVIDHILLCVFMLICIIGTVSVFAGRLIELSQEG", "sequence (P02718 22-522)": "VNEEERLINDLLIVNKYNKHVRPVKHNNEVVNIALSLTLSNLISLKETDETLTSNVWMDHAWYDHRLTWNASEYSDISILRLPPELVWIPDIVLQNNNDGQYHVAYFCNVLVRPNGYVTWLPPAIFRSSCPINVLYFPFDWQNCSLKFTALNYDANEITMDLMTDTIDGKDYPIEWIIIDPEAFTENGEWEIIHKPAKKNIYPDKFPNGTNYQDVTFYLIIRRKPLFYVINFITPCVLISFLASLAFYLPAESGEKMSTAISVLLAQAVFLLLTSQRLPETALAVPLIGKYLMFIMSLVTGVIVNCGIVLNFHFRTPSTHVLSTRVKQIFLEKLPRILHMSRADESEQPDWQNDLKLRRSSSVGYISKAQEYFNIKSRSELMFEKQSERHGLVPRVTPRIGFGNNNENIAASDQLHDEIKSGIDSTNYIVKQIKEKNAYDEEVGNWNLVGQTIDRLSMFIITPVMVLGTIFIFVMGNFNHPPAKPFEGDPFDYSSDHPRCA", "sequence (P02712 25-493)": "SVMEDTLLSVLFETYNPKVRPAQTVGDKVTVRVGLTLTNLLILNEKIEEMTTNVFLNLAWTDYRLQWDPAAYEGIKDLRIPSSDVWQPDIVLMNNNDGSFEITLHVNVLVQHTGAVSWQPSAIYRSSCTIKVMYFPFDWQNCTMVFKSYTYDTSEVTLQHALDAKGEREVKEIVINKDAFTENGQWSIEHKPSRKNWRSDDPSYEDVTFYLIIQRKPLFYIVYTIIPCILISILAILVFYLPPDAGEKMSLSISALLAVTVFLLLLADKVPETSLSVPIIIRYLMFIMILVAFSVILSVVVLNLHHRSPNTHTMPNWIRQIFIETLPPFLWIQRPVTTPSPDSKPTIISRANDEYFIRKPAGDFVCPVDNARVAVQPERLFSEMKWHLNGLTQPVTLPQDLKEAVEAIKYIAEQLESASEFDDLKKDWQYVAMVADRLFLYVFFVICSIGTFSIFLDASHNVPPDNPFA", "assay": "biochemical", "type": "binding"}, "[6]": {"target": "T3, rat α9α10 nAChR (Rattus norvegicus, UniProt P43144+Q9JLB5)", "T3 construct": "expressed in transfected cells; host or cells: Xenopus laevis oocytes injected with cRNA (pGEMHE vector)", "T3 sequence (Q9JLB5 25-447)": "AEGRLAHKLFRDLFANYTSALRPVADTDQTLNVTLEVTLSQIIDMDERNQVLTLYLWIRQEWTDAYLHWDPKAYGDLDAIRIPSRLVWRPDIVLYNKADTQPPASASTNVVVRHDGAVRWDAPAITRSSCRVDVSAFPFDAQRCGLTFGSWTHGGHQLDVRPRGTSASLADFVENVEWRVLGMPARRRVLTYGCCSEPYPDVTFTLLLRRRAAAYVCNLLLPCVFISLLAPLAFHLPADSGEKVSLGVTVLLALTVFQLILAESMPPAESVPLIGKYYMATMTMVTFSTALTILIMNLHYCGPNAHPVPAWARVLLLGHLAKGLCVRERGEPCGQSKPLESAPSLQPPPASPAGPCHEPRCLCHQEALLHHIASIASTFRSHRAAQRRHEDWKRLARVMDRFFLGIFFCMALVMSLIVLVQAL", "T3 sequence (P43144 26-479)": "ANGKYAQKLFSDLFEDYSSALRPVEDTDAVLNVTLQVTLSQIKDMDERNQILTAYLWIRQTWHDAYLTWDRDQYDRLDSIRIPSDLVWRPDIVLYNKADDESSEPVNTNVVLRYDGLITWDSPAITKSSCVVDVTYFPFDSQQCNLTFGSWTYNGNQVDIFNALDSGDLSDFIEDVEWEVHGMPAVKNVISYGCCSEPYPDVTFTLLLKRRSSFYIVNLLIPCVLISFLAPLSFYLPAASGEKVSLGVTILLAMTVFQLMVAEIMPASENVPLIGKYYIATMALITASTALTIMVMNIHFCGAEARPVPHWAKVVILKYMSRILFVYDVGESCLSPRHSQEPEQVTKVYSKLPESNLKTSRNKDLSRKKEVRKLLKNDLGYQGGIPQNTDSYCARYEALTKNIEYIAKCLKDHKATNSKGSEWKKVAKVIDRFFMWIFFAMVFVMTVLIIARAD", "assay": "Two-electrode voltage clamp, rat α9α10 nAChR in Xenopus oocytes", "type": "cell-based", "conditions": "X. laevis oocytes, 30 μM acetylcholine, 5 min pre-incubation with peptide, −60 mV; n = 3; read-out: IC50, inhibition of acetylcholine-induced ion currents in rat α9α10 nAChR", "experimental": "Oocytes were removed from mature, anesthetized Xenopus laevis by dissecting abdomen and removing necessary amount of ovarium. Stage V–VI Xenopus laevis oocytes were defolliculated with 2 mg/ml collagenase type I (Life Technologies, Camarillo, USA) at room temperature (21–24°C) for 2 h in Ca^2+-free Barth’s solution composed of (in mM) 88 NaCl, 1.1 KCl, 2.4 NaHCO3, 0.8 MgSO4, and 15 HEPES-NaOH at pH 7.6. Oocytes were injected with 9.2 ng of rat or human nAChR α9 and α10 cRNA (in a ratio 1:1) or human α3 and β2 or α4 and β2 cRNA (in a ratio 1:1). Oocytes were incubated at 18°C for 2–4 days before electrophysiological recordings in Barth’s solution composed of (in mM) 88 NaCl, 1.1 KCl, 2.4 NaHCO3, 0.3 Ca(NO3)2, 0.4 CaCl2, 0.8 MgSO4, and 15 HEPES-10NaOH at pH 7.6, supplemented with 40 μg/ml gentamicin and 100 μg/ml ampicillin. Recordings were performed using turbo TEC-03X amplifier (NPI Electronic, Tamm, Germany) and WinWCP recording software (University of Strathclyde, Glasgow, UK). The glass recording electrodes were filled with 3 M KCl and the electrode resistance was 0.1−0.5 MΩ. Membrane potential was clamped at −60 mV. […] The peak current amplitudes of ACh-induced responses were measured before (ACh alone) and after the preincubation of oocytes with peptides. […]"}, "[7]": {"conditions": "[…], 90 min with peptide + 5 min with radioligand, three to four independent experiments, read-out: IC50, μM (95%CI) AChBP"}, "[8]": {"conditions": "[…], 90 min with peptide + 5 min with radioligand, 20 mM Tris-HCl pH 8.0, 1 mg/ml BSA, mean (95% CI), three to four independent experiments, read-out: IC50, μM (95%CI) T. californica"}}, "note": "Where two headings read alike, the source gives them in different places. Positions of bridges follow the written chain, without caps; N, C: chain ends. Residues, ends and D or L forms follow the SMILES beside them."}
{"smiles": "CSCC[C@@H]1NC(=O)[C@H](CCCNC(=N)N)NC(=O)[C@H](CCCNC(=N)N)NC(=O)[C@H](C(C)C)NC(=O)[C@H](C(C)C)NC(=O)[C@H](CCC(=O)O)NC(=O)[C@H](Cc2ccc(O)cc2)NC(=O)[C@@H]2CCCN2C(=O)[C@H](CO)NC(=O)[C@H](CCCNC(=N)N)NC(=O)[C@H](CCC(N)=O)NC(=O)[C@H](Cc2c[nH]cn2)NC(=O)[C@H](CCCNC(=N)N)NC(=O)[C@H](C(C)C)NC(=O)[C@H](CCSC)NC(=O)[C@H](CCCCN)NC(=O)[C@@H](N)CSSC[C@@H](C(=O)O)NC1=O", "note": "[SSS (5)] (H-CKMVRHQRSPYEVVRRMC-OH; disulfide 1-18; N-terminus assumed)", "values": [{"measurement": "inhibition of ion currents in human α9α10 nAChR", "setting": "[1]; 100 μM peptide, 25 μM acetylcholine, X. laevis oocytes, n = 3", "value": 50, "unit": "%"}, {"measurement": "fold more active against α7 nAChR than the Lynx1 fragment (1)", "setting": "[2]; ratio of IC50 values of the radioligand assay", "value": 10, "unit": "fold"}, {"measurement": "activity on ion currents in α3β2 nAChR (result in words)", "setting": "[3]", "value": "inactive"}]}
{"smiles": "CSCC[C@@H]1NC(=O)[C@H](CCCNC(=N)N)NC(=O)[C@H]([C@@H](C)O)NC(=O)[C@@H]2CCCN2C(=O)[C@H]([C@@H](C)O)NC(=O)[C@H](Cc2ccc(O)cc2)NC(=O)[C@H](Cc2ccc(O)cc2)NC(=O)[C@H]([C@@H](C)O)NC(=O)[C@H](CCCNC(=N)N)NC(=O)[C@H]([C@@H](C)O)NC(=O)[C@@H](N)CSSC[C@@H](C(=O)O)NC1=O", "note": "[Lynx1 short (3)] (H-CTRTYYTPTRMC-OH; disulfide 1-12)", "values": [{"measurement": "IC50", "setting": "[4]; [7]", "value": "> 100", "unit": "µM"}, {"measurement": "IC50", "setting": "[5]; [8]", "value": 74.1, "unit": "µM"}]}
{"smiles": "CC(C)C[C@@H]1NC(=O)[C@H](C(C)C)NC(=O)[C@H](CCCNC(=N)N)NC(=O)[C@H]([C@@H](C)O)NC(=O)[C@H](C)NC(=O)[C@H]([C@@H](C)O)NC(=O)[C@@H](N)CSSC[C@@H](C(=O)O)NC(=O)[C@H]([C@@H](C)O)NC(=O)[C@H](C(C)C)NC(=O)[C@H](CC(C)C)NC(=O)[C@@H]2CCCN2C(=O)[C@H](CC(C)C)NC(=O)[C@H](CC(=O)O)NC(=O)[C@H](CCC(=O)O)NC(=O)[C@H]([C@@H](C)O)NC(=O)[C@H](CC(N)=O)NC(=O)[C@H](CO)NC1=O", "note": "[SLURP2 (7)] (H-CTATRVLSNTEDLPLVTC-OH; disulfide 1-18; N-terminus assumed)", "values": [{"measurement": "inhibition of human α9α10 nAChR (result in words)", "setting": "[1]", "value": "no inhibition"}, {"measurement": "activity on ion currents in α3β2 nAChR (result in words)", "setting": "[3]", "value": "inactive"}]}
{"smiles": "CSCC[C@@H]1NC(=O)[C@H](CCCNC(=N)N)NC(=O)[C@H]([C@@H](C)O)NC(=O)[C@@H]2CCCN2C(=O)[C@H]([C@@H](C)O)NC(=O)[C@H](Cc2ccc(O)cc2)NC(=O)[C@H](Cc2ccc(O)cc2)NC(=O)[C@H]([C@@H](C)O)NC(=O)[C@H](CCCNC(=N)N)NC(=O)[C@H]([C@@H](C)O)NC(=O)[C@H]([C@@H](C)O)NC(=O)[C@@H](N)CSSC[C@@H](C(=O)O)NC(=O)[C@H](CCCCN)NC(=O)[C@H](CO)NC(=O)[C@H](C(C)C)NC(=O)[C@H](CCCCN)NC1=O", "note": "[Lynx1 (1)] (H-CTTRTYYTPTRMKVSKC-OH; disulfide 1-17)", "values": [{"measurement": "IC50", "setting": "[6]", "value": 27, "unit": "µM"}, {"measurement": "IC50", "setting": "[4]", "value": "> 100", "unit": "µM"}, {"measurement": "IC50", "setting": "[5]; IC50, μM (95%CI) T. californica", "value": 4.9, "unit": "µM"}]}
{"smiles": "CSCC[C@H](NC(=O)[C@H](CCCNC(=N)N)NC(=O)[C@@H](NC(=O)[C@@H]1CCCN1C(=O)[C@@H](NC(=O)[C@H](Cc1ccc(O)cc1)NC(=O)[C@H](Cc1ccc(O)cc1)NC(=O)[C@@H](NC(=O)[C@H](CCCNC(=N)N)NC(=O)[C@@H](NC(=O)[C@@H](N)[C@@H](C)O)[C@@H](C)O)[C@@H](C)O)[C@@H](C)O)[C@@H](C)O)C(=O)N[C@@H](CCCCN)C(=O)N[C@H](C(=O)N[C@@H](CO)C(=O)N[C@@H](CCCCN)C(=O)O)C(C)C", "note": "[Lynx1 linear (2)] (H-TTRTYYTPTRMKVSK-OH)", "values": [{"measurement": "IC50", "setting": "[1]", "value": 32.3, "unit": "µM"}, {"measurement": "IC50", "setting": "[4]; [7]", "value": "> 100", "unit": "µM"}, {"measurement": "IC50", "setting": "[2]; […], 90 min with peptide + 5 min with radioligand, Tris-HCl pH 8.0, mean (95% CI), three to four independent experiments", "value": "> 180", "unit": "µM"}, {"measurement": "IC50", "setting": "[5]; [8]", "value": 13.2, "unit": "µM"}]}
{"smiles": "CC(C)C[C@@H]1NC(=O)[C@H]([C@@H](C)O)NC(=O)[C@@H](N)CSSC[C@@H](C(=O)O)NC(=O)[C@H]([C@@H](C)O)NC(=O)[C@H](C(C)C)NC(=O)[C@H](C(C)C)NC(=O)[C@@H]2CCCN2C(=O)[C@H](CO)NC(=O)[C@H](CCC(N)=O)NC(=O)[C@H](CC(N)=O)NC(=O)[C@H](Cc2ccccc2)NC(=O)[C@@H]2CCCN2C(=O)[C@H](Cc2ccc(O)cc2)NC(=O)[C@H](CCC(=O)O)NC(=O)[C@H](C)NC(=O)[C@H](CCC(=O)O)NC(=O)[C@H](C(C)C)NC(=O)[C@H]([C@@H](C)O)NC(=O)[C@H](C(C)C)NC1=O", "note": "[SLURP1 (6)] (H-CTLVTVEAEYPFNQSPVVTC-OH; disulfide 1-20; N-terminus assumed)", "values": [{"measurement": "inhibition of human α9α10 nAChR (result in words)", "setting": "[1]", "value": "no inhibition"}, {"measurement": "normalized ion current in human α3β2 nAChR (current with ACh alone = 1)", "setting": "[3]; 50 μM peptide, 30 μM ACh, mean ± SEM, n = 5", "value": "0.74 ± 0.08"}]}
{"smiles": "CSCC[C@H](NC(=O)[C@H](CCCNC(=N)N)NC(=O)[C@@H](NC(=O)[C@@H]1CCCN1C(=O)[C@@H](NC(=O)[C@H](Cc1ccc(O)cc1)NC(=O)[C@H](Cc1ccc(O)cc1)NC(=O)[C@@H](NC(=O)[C@H](CCCNC(=N)N)NC(=O)[C@@H](NC(=O)[C@@H](N)CS)[C@@H](C)O)[C@@H](C)O)[C@@H](C)O)[C@@H](C)O)C(=O)N[C@@H](CS)C(=O)O", "note": "[Lynx1 short linear (4)] (H-CTRTYYTPTRMC-OH)", "values": [{"measurement": "IC50", "setting": "[4]; [7]", "value": "> 100", "unit": "µM"}, {"measurement": "IC50", "setting": "[5]; [8]", "value": 15.6, "unit": "µM"}]}
